The test system of data set [1] is CL097 triggered TNFα release in human whole blood. Description: Ex vivo human TNFα release inhibition (human whole blood assay). The class given is cell-based. Particulars: Homo sapiens, CL097 2 μg/mL, 3 h 30 min at 37° C. From the text:
(§1) 4.10.1. Ex Vivo Human IFNα and TNFα Release Inhibition (Human Whole Blood Assay)
(§2) The aim of the assay is to evaluate the activity of compounds of the invention on the activated TLR/IRAK-4 pathway in an ex vivo human whole blood setting. Toll-like receptors (TLRs) are pattern recognition receptors that recognize a wide variety of microbial molecules, called pathogen-associated molecular patterns (PAMPs). Human TLR7 and TLR8 recognize imidazoquinoline compounds (e.g., CL097—CAS n #1026249-18-2) and single stranded RNAs as their natural ligands. Activation of TLRs leads to the production of several cytokines (e.g., IFNα, TNFα, IL-8, IL-6) by the TLR agonist-treated cells, whereas IRAK4 leads to the production of IFNα. Cytokine release is used as readout in this assay and represents a measure for the level of inhibition of the TLR/IRAK-4 pathway by the tested compound. It should be noted that in the context of the complete organism, other sources for these cytokines exist that are not dependent on the TLR/IRAK-4 pathway, such as e.g., macrophages (upon activation of the Fcγ receptor (Yan et al., 2012)) or T cells (upon activation of the T cell receptor (Brehm et al., 2005)).
(§3) 4.10.1.1. Experimental Design
(§4) Blood was collected from healthy volunteers into lithium heparin tubes by venipuncture, then gently inverted several times to prevent clotting and incubated for at least 15 min at 37° C. on a rocking mixer shaker. Then, 100 μL of blood was dispensed into polypropylene 96-well microplate and pre-incubated in duplicate with 0.3% DMSO or test compound at different concentrations (from 30 to 0.01 μM, 3-fold dilutions to get 0.3% DMSO at the final) for 15 min at 37° C. After this pre-incubation, blood was triggered with CL097 (2 μg/mL from 1 mg/mL solution in water; InvivoGen, tlrl-c97) for 3 h 30 min at 37° C. Microtubes were centrifuged at 5000×g for 10 min at 4° C. and approximately 40 μL of plasma were collected into a polystyrene 96-well plate. Plasma could be analyzed freshly, within 30 min after triggering, or frozen at −80° C. Finally, the quantification of TNFα and IFNα were performed in the plasma using AlphaLISA Kit for TNFα and IFNα according to the manufacturer's instructions and read on the Ensight (PerkinElmer).
For each blood sample, the TNFα concentrations of the samples were determined from the fit. Data were then expressed a percentage of inhibition PIN for each replicate using the formula:
With mean TNFα with CL097=mean TNFα concentration of replicate samples triggered with CL097; TNFαsample1=TNFα concentration of sample 1; mean TNFα with vehicle=mean TNFα concentration of replicate samples treated with vehicle.
(§5) Curve fitting for pIC50 determination were generated using mean PIN±sem. Graphs and pIC50 calculations were derived using Prism 5.03 software (GraphPad).

In data set [2] the test system is CL097 triggered IFNα release in human whole blood. The data set is described as follows: Ex vivo human IFNα release inhibition (human whole blood assay). As to conditions: Homo sapiens, CL097 2 μg/mL, 3 h 30 min at 37° C. The class given is cell-based.
Description: as §1, §2, §3, §4
A standard curve was created by plotting on log-log the mean […] on the y-axis against the concentration on the x-axis and a 4-parameters logistic regression (4PL) was made through the points. For each blood sample, the IFNα concentrations of the samples were determined from the fit. Data were then expressed as a percentage of inhibition (PIN) for each replicate using the formula:
With mean IFNα with CL097=mean IFNα concentration of replicate samples triggered with CL097; IFNαsample1=IFNα concentration of sample 1; mean IFNα with vehicle=mean IFNα concentration of replicate samples treated with vehicle.
as §5

The target in another data set is T1, human IRAK-4 (Homo sapiens, UniProt Q9NWZ3).
T1 construct: purchased Carna Biosciences 09 145
T1 sequence (Q9NWZ3 1-460): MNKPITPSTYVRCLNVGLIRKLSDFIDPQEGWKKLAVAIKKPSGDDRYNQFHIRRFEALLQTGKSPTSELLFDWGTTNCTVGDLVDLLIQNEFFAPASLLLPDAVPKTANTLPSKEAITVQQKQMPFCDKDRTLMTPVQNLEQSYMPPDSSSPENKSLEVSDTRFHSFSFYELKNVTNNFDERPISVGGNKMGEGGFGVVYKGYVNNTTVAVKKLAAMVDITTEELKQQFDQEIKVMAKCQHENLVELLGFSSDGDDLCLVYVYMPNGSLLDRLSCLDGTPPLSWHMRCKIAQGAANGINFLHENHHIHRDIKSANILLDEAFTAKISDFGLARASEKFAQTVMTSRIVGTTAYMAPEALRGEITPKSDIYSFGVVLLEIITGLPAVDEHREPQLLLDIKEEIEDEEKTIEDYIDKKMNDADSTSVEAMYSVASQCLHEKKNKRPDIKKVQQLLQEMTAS
Description: Phosphorylation IC50 determination for human IRAK-4 (ADP-Glo kinase assay). The class given is biochemical. As to conditions: RIP140 substrate, Km ATP, read-out: IRAK4 IC50. The procedure:
3.1. Phosphorylation IC50 Determination for Human IRAK-4
The phosphorylation of the substrate RIP140 (SEQ IDi1) by IRAK4 at Km ATP was detected with the ADP-Glo Kinase Assay (Promega, Cat #V9103), a luminescent kinase assay which measures the ADP formed from a kinase reaction. (Zegzouti et al., 2009) In a second step the kinase reaction is terminated and all the remaining ATP was depleted. In a final step the ADP was converted into ATP and this newly synthesized ATP was measured by using a luciferase/luciferin reaction with a luminescent reader. The luminescent signal positively correlated with kinase activity, in particular kinase inhibition giving a decrease of the luminescent signal.
For the semi-automated assay, the positive control (100% inhibition) was prepared by diluting 10 mM staurosporine stock mixture (20 μL) in water (3.8 mL) and DMSO (180 μL), thus resulting in a […] staurosporine solution at 1% DMSO (final concentration after further dilution in the kinase reaction).
For the automated assay, no pre-dilution of the 10 mM staurosporine stock was made. 10 mM staurosporine was spotted directly in the assay plate using acoustic dispensing and complemented with DMSO to result in a similar final concentration as mentioned above.
For the semi-automated assay, the negative control (0% inhibition) was prepared by mixing water (3.8 mL) and DMSO (200 μL) resulting in a final concentration of 1% DMSO after further dilution in the kinase reaction. For the automated assay no pre-dilution of DMSO was done. 100% DMSO was spotted directly on the assay plate.
The assay buffer solution was prepared at a concentration corresponding to 5 fold the final (most diluted) assay concentration by mixing a solution of 125 mM TRIS pH 7.5+0.05% Triton X-100+2.5 mM EGTA (5.27 mL) with 1M MgCl2 (72 μL), 1M DTT (57.6 μL), and 200 mM MnCl2 (360 μL).
For example, for the semi-automated method, the enzyme-substrate mixture was prepared by mixing water (3999 μL), assay buffer solution (1380 μL), 1 mM RIP140 (138 μL—SEQ ID1), and 200 ng/mL IRAK 4 (3.45 μL Carna Biosciences, 09 145).
For semi-automated method, the ATP mixture was prepared at a concentration corresponding to 2.5 fold the final (most diluted) assay concentration of the semi-automated method and 1.5 fold the final (most diluted) assay concentration of the automated method. For example, for the semi-automated method, the ATP mixture was prepared by mixing water (4126 μL), assay buffer solution (1380 μL), and 10 mM ATP (13.80 μL).
The assay was performed either in a semi-automated or fully automated manner. The assay volume and the incubation time of the ADP detection were different accordingly the method used.
3.1.3.1. Semi-Automated Assay
The compounds were prepared as a serial dilution of 10 point dose responses with 1/5 dilution steps in 100% DMSO starting from 2 mM highest concentration, diluted 1/20 in water. 1 μL was transferred dry to the assay plates.
On each assay plate 32 wells of each control (positive & negative) were added, followed by 2 μL enzyme-substrate mixture.
The reaction was started by adding 2 μL diluted ATP (final concentration Km ATP) on the assay plates. Plates were centrifuged for a few seconds at 1000 rpm followed by an incubation at r.t. for 120 min.
The reactions were stopped and the unconsumed ATP was depleted by adding 5 μL ADP-glo Reagent (Promega, Cat #V9103) to the reaction. The plates were quickly centrifuged at 1000 rpm and incubated at r.t. for 40 min corresponding to full ATP depletion.
The ADP was converted back to ATP and luciferase and luciferin were introduced to detect ATP by adding 10 μL kinase detection reagent (Promega, Cat #V9103) to the reaction. The plates were centrifuged for a few seconds at 1000 rpm and incubated at r.t. for a further 30 min.
Luminescent read out was performed on an Envision luminescent reader (Perkin Elmer). […]
For orientation: ADP-Glo first removes unused ATP, then detects ADP through luciferase.

A further data set is described as follows: Thermodynamic solubility. Type of data set: physicochemical. As to conditions: 37 °C, thermodynamic from solid. From the text: 4.2. Thermodynamic Solubility
Poor solubility, in particular poor thermodynamic solubility can limit the absorption of compounds from the gastrointestinal tract which in turn may reduce oral bioavailability.
Thermodynamic solubility investigates the solubility of a compound as a saturated solution in equilibrium, by opposition to kinetic solubility, which measures the solubility of a metastable solution where supersaturation may occur and provide over estimation of the actual solubility of the compound. (Klein, 2010)
4.2.2. Thermodynamic Solubility—Protocol 2
In a 8 mL glass vial, 1-2 mg of dry matter of compound were added and stirred with the suitable buffers (Fed State Simulated Intestine Fluid, FeSSIF, or Fasted State Simulated Intestine Fluid, FaSSIF, or Fasted State Simulated Gastric Fluid, FaSSGF, or phosphate buffer pH 7.4) for 24 h at r.t. (for the buffer pH 7.4) or 37° C. (for the GI fluids). The concentration of the mixture was 1 mg/mL.
A volume of 1000 μL were sampled, centrifuged for 10 min at 10 000 rpm and 500 μL of the supernatant were filtered on captiva plate. The samples were diluted in duplicates in DMSO (F100 and F10). Then, a final dilution (F100) in 80/20 H2O/MeCN containing the internal standard (warfarin) was used for LCMS-MS analysis.
A standard curve was made starting from a 40,000 ng/mL stock in DMSO, freshly prepared from dry matter. Then, successive concentrations at 15,000, 11,000, 6,000, 2,500, 1,000, 375, 150 and 75 ng/mL in DMSO were prepared.
Three quality control samples were made: one of 10,000, 1,500 and 200 ng/mL in DMSO, also starting from the DMSO working stock solution at 40,000 ng/mL.
The standard curve and quality controls were diluted a F100 in 80/20 H2O/MeCN (with internal standard) and analyzed on LC/MS-MS (API4000 or API5500).
The samples were analyzed on LC-MS with a flow rate of 0.6 mL/min. The mobile phase A was 0.1% formic acid in water and the mobile phase B was 0.1% formic acid in 90% MeCN and 10% of H2O. The sample was run under positive or negative ion spray on Pursuit C18—5 μm (2.0×20 mm) column, from Agilent.
The ratio analyte/internal standard peaks areas of the standard curve were plotted in a graph and a linear or polynomial of the second order equation was used to calculate the unknown concentrations of the test compound.
Solubility values were reported in μg/mL.

Read-outs that look alike come from different tables or passages of the source. Where only a bound is given, the exact number is not on record here.

As for `COc1cn2nc(CCS(C)(=O)=O)cc2cc1NC(=O)c1cccn(C2CC2)c1=O` [Compound 6, 1-cyclopropyl-N-[6-methoxy-2-(2-methylsulfonylethyl)pyrazolo[1,5-a]pyridin-5-yl]-2-oxo-pyridine-3-carboxamide], the IC50 was in the range of 0.1 to 500 nM in data set [1], 500 to 1000 nM in data set [2] and 5 to 10 nM at human IRAK-4.
For `NC(=O)c1cn2nc(C3CCOCC3)cc2cc1NC(=O)c1cccc(C(F)(F)F)n1` [Compound 11, 2-tetrahydropyran-4-yl-5-[[6-(trifluoromethyl)pyridine-2-carbonyl]amino]pyrazolo[1,5-a]pyridine-6-carboxamide], the concentration for half-maximal inhibition (IC50) at human IRAK-4 is 0.1 to 5 nM.
For `CNC(=O)c1cn2nc(C3CCOCC3)cc2cc1NC(=O)c1cccc(C(F)(F)F)n1` [Compound 14, N-methyl-2-tetrahydropyran-4-yl-5-[[6-(trifluoromethyl)pyridine-2-carbonyl]amino]pyrazolo[1,5-a]pyridine-6-carboxamide], the solubility thermodynamic at 24 h is < 0.75 µg/mL in “Thermodynamic solubility” (Fasted State Simulated Gastric Fluid (FaSSGF), fassgf or other biorelevant, Fasted State Simulated Gastric Fluid, read-out: Tsol FaSSGF) and < 0.75 µg/mL in “Thermodynamic solubility” (Fasted State Simulated Intestine Fluid (FaSSIF), fassif, Fasted State Simulated Intestine Fluid, read-out: Tsol FaSSIF). In addition, the IC50 on human IRAK-4 lay in the range of 5 to 10 nM.

What is called IC50 is the concentration needed to halve the response being measured.

The record behind these values is patent US20220218679A1, “NOVEL COMPOUNDS AND PHARMACEUTICAL COMPOSITIONS THEREOF FOR THE TREATMENT OF INFLAMMATORY DISORDERS” (Galapagos NV, priority 2019, published 2022).
